Experimental data reported in article PMC7226483, “Exploring the Synergy between PARP and CHK1 Inhibition in Matched BRCA2 Mutant and Corrected Cells” (Cancers, 2020).

Molecular target: T1, CHK1 (Cricetulus griseus, UniProt G3I7I8)
T1 construct: gene Chek1
T1 sequence (G3I7I8 1-476): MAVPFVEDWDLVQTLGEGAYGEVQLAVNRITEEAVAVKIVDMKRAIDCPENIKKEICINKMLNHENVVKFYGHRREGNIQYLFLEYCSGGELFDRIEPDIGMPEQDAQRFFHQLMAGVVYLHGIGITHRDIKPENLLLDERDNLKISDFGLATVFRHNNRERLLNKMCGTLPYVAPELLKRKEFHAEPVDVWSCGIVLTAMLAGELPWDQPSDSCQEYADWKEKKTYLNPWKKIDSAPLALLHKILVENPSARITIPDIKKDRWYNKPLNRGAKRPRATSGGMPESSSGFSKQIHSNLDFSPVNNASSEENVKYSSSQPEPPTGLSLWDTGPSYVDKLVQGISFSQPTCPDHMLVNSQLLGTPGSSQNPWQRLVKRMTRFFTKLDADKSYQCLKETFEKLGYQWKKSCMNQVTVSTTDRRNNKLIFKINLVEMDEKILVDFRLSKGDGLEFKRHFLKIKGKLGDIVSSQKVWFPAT
Assay: Western blot of CHK1 S296 autophosphorylation in rucaparib-treated V-C8 and V-C8.B2 cells
Type: cell-based
Conditions: read-out: % inhibition at 50 nM

Compound: Cn1cc(-c2[nH]c3cc(NC(=O)[C@H](N)C4CCCCC4)cc4c3c2C=NNC4=O)cn1 [PF-477736]
- inhibition at 0.05 µM: 91.4%
